In patent US4666897A, “Inhibition of mammalian collagenolytic enzymes by tetracyclines” (Research Foundation of State University, priority 1983, dated 1987):

Columns and labels:
[1] = test system: fetal rat bones (radii and ulnae) in organ culture; experiment: PTH-induced bone resorption in organ culture (45calcium release); type: cell-based; settings: for effect on PTH-enhanced bone resorption, in words: concentrations 0.2-300 μg/ml
Procedure: The technique used to assess bone resorption is based on monitoring the release of radioactive calcium, previously incorporated by embryonic bones in vivo, during organ culture. Pregnant Sprague-Dawley rats were injected subcutaneously with 200 μCi of ^45 calcium chloride on the 18th day of gestation. The following day, the animals were killed, the fetuses removed, and the radii and ulnae dissected under aseptic conditions. […] The bones were then randomly distributed and each bone, either a radius or ulna, was incubated in 0.5 ml of culture media alone or in a media containing parathyroid hormone (PTH: human synthetic 1-34 peptide, Beckman Instruments, Inc., Palo Alto, California) added in a final concentration of 1.0 μg/ml; the experimental bones were incubated in the PTH containing medium to which was added different concentrations (0.2-300 μg/ml) of the antibiotics to be tested. The bones were cultured for 5 days, with the media being changed after day 2, and the incubation terminated. The bones were decalcified in 0.2 ml of 5% trichloroacetic acid and the ^45 calcium content of the residual bones and of the culture media was measured as described previously. (Werner and Raisz, Endocrinology, 90, 752 (1972 ) and Gomes, et. al., Calc. Tiss. Res., 19, 285 (1976)). The ^45 calcium released into the media was calculated as a percentage of the total radioactive calcium measured in the bones.

[2] = target: T1, rat PMNL collagenolytic activity (PMNL collagenase) (Rattus norvegicus, UniProt O88766); experiment: Rat PMNL collagenolytic activity in vitro (14C-collagen gel lysis); type: biochemical; settings: for Collagenolytic Activity: % ^14 C-collagen gel lyzed / effect on PMNL collagenolytic activity, in words: Table 2; for Collagenolytic Activity: % ^14 C-collagen gel lyzed: PMNL extract (30 × 10^6 PMNLs per ml) + 20 ug/ml, control extract 39.0
T1 construct: An extract of PMNLs was prepared; from tissue; host or cells: extract of peritoneal exudate polymorphonuclear leucocytes of non-diabetic rats, elicited with glycogen
Procedure: To test the effect of physiologic levels of minocycline (the concentration in human serum, during a therapeutic regimen, is approximately 2 ug/ml; that in the gingival crevicular fluid is 4-5 times greater; Ciancio, et. al., 1980, J. Periodontol., 51, 531-534) on mammalian collagenolytic activity in vitro, peritonealexudate polymorphomuclear leucocytes (PMNLs) were collected from 15 mole (non-diabetic) rats 4 hours after I.P. injection of 0.15% glycogen. An extract of PMNLs was prepared, 250 μl aliquots of this extract were incubated with ^14 C-glycine labeled collagen fibrils for 14 hours at 35° C. (in the presence or absence of minocycline, or EDTA, or additional CaCl2), and collagenolytic activity was measured as described by Nicoll, et al., (Experientia., 37, 315-317).
The techniques used to measure the collagenolytic enzyme activity of gingival tissue in culture, and in polymorphonuclear leucocytes (PMNLs), are those described by Golub, et. al., (J. Dent. Res., 57, 520-525 (197)8) and Nicoll, et. al., (Experimentia, 37, 315-317, (1981)) with minor modifications.

[3] = test system: GCF collagenase and gingival disease in diabetic twins; experiment: Human gingival crevicular fluid (GCF) study, diabetic twin brothers; type: in vivo; settings: 7 days of treatment
Procedure: In a separate study involving humans, gingival crevicular fluid (GCF) samples were collected on filter paper strips inserted into 8 interproximal pockets of selected teeth in the maxillary arch of two twin brothers with juvenile-onset (insulin-dependent) diabetes mellitus. Fluid volume was immediately determined on a modified Periotron (Model 6000, Harco Electronics Ltd., Winnipeg, Canada); then incubated with 10 μl (^3 H-methyl) collagen (20,675 DPM) and 70 μl buffer (50 mM Tris-HCl, pH 7.8, containing 0.2 M sodium chloride and 5 mM calcium chloride). The GCF samples (or reagent blanks or trypsin controls) were incubated at 27° C. for 18 hours with gentle shaking. The reaction was stopped and undigested collagen precipitated by adding 10 μl 0.1 M phenanthroline in dioxane/water (1:1, v/v), 10 μl of nonradioactive methylated carrier collagen (2 mg/ml) in 50 mM Tris-HCl buffer containing 1M NaCl (pH 7.0), and 100 μl dioxane. After mixing, the radiolabeled collagen degradation products were collected by filtration and counted in a liquid scintillation spectrometer (Golub, et. al., 1976, J. Dent. Res., 55, 1049). Using this technique, the reaction blank (no enzyme or GCF added) released about 10% of the total substrate counts; 2-20 ng bacterial collagenase produced a linear increase in the release of radioactive counts from the ^3 H-collagen substrate (the 20 ng level of enzyme degraded 60% of the collagen substrate); and 50 ng trypsin released less than 1% of the counts above blank values. GCF collagenase activity was expressed as units of equivalent activity of vertebrate collagenase (obtained from New England Nuclear, Cat. No. NEK-016); 1 unit was operationally defined as the amount of enzyme that degrades 1 μg of collagen per hour at 27° C.
Four additional GCF samples were collected from other maxillary pockets of the same diabetic twin brothers on filter paper strips, their volume determined (see above), and collagenolytic activity assessed using the same procedure described above but with a different substrate (10 μl of (^3 H-propionate) collagen, NET-660, New England Nuclear Corp., Boston, Mass., 302,000 DPM).
Half of the 12 GCF samples per subject were activated by pretreatment with 1.04 uM trypsin followed by the addition of a 5-fold molar excess of soybean trypsin inhibitor. Samples were selected to be treated or not treated with trypsin by matching them for Gingival Index (Loe and Silness, Acta. Odont. Scand., 21, 533-551 (1967)), GCF flow, and for pocket depth; the clincal parameters (GI, PD) were measured immediately after GCF collection. All measurements were carried out immediately before antibiotic coverage and after 7 days of treatment with either pencillin G (lg. per day; patient three) or the tetracycline minocycline (200 mg/day; patient one).

[4] = penicillin G 1 g per day (P. D.) or minocycline 200 mg/day (K. D.)

T1 sequence (O88766 102-466): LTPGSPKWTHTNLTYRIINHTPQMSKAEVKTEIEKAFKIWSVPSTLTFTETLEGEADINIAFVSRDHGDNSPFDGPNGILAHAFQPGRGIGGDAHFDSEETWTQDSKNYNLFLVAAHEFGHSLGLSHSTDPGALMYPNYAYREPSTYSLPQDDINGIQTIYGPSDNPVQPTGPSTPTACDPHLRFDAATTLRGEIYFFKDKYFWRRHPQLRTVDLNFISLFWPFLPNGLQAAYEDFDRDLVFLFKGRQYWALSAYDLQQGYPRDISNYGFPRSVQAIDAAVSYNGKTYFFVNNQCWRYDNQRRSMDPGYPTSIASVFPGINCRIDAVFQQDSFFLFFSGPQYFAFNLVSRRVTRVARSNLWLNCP

For `[H]/N=C(/N)N[C@H]1[C@H](O)[C@@H](O)[C@H](O[C@@H]2O[C@@H](C)[C@](O)(C=O)[C@H]2O[C@@H]2O[C@@H](CO)[C@H](O)[C@@H](O)[C@@H]2NC)[C@@H](N/C(N)=N\[H])[C@@H]1O` [streptomycin], the “effect on PTH-enhanced bone resorption, in words” value [1] was “no detectable effect”.
For “PTH: parathyroid hormone, human synthetic 1-34 peptide, Beckman Instruments, final concentration 1.0 μg/ml”, the “increase of the loss of radiolabeled calcium by addition of PTH” value ([1]; PTH 1.0 μg/ml versus culture media alone, Tables 3-5) was 90-160%, the “^45 Calcium in Fetal Bone Released into Media (%) after 2 days incubation” value (shortened to “^45 Calcium … (%) after 2 days incubation”) ([1]; Table 3, PTH alone 1.0 μg/ml, no addition 19.9 ± 1.5) was 46.1 ± 1.9% and the “^45 Calcium in fetal bone Released into media (%) after 5 days incubation” value (“^45 Calcium … (%) after 5 days incubation” below) ([1]; Table 3, PTH alone 1.0 μg/ml, no addition 27.6 ± 1.3) was 73.3 ± 1.3%. The “^45 Calcium … (%) after 2 days incubation” value ([1]; Table 4, PTH alone, no addition 27.1 ± 1.0) was 61.6 ± 1.2%, the “^45 Calcium … (%) after 2 days incubation” value ([1]; Table 4, PTH alone, no addition 50.8 ± 1.8) was 97.9 ± 0.7% and the “^45 Calcium … (%) after 2 days incubation” value ([1]; Table 5, PTH alone, no addition 22.4 ± 0.7) was 51.2 ± 1.4%. For the same molecule, the “^45 Calcium … (%) after 5 days incubation” value ([1]; Table 5, PTH alone, no addition 46.7 ± 3.0) was 91.9 ± 1.7%.
`C[C@H]1c2cccc(O)c2C(O)=C2C(=O)[C@]3(O)C(O)=C(C(N)=O)C(=O)[C@@H](N(C)C)[C@@H]3[C@@H](O)[C@@H]21` [doxycycline, Doxycycline] was tested, and the “Collagenolytic Activity: % ^14 C-collagen gel lyzed” value [2] was 4.5%, the “^45 Calcium … (%) after 2 days incubation” value ([1]; Table 4, first column, PTH + 0.2 μg/ml) was 56.6 ± 2.0% and the “^45 Calcium … (%) after 2 days incubation” value ([1]; Table 4, first column, PTH + 2.0 μg/ml) was 57.5 ± 2.5%. The “^45 Calcium … (%) after 2 days incubation” value ([1]; Table 4, first column, PTH + 20 μg/ml) was 30.6 ± 1.7%, the “^45 Calcium … (%) after 2 days incubation” value ([1]; Table 4, first column, PTH + 200 μg/ml) was 18.8 ± 1.1% and the “^45 Calcium … (%) after 2 days incubation” value ([1]; Table 4, second column, PTH + 0.2 μg/ml) was 97.1 ± 0.7%. The “^45 Calcium … (%) after 2 days incubation” value ([1]; Table 4, second column, PTH + 2.0 μg/ml) was 93.5 ± 1.7%, the “^45 Calcium … (%) after 2 days incubation” value ([1]; Table 4, second column, PTH + 20 μg/ml) was 35.3 ± 1.6% and the “^45 Calcium … (%) after 2 days incubation” value ([1]; Table 4, second column, PTH + 200 μg/ml) was 28.7 ± 0.8%. For the same molecule, the “effect on PTH-enhanced bone resorption, in words” value [1] was “inhibited bone resorption in a dose responsive manner”.
With `O=C(O)CN(CCN(CC(=O)O)CC(=O)O)CC(=O)O` [EDTA] the “effect on PMNL collagenolytic (collagenase) activity, in words” value ([2]; Table 1) was “completely inihibited” and the “Collagenolytic Activity: % ^14 C-collagen gel lysed” value ([2]; Table 1, PMNL extract + 54 mM, control extract 85.5) was 3.1%.
In the case of `Cc1nnc(SCC2=C(C(=O)O)N3C(=O)[C@@H](NC(=O)Cn4cnnn4)[C@H]3SC2)s1` [cefazolin], the “effect on PMNL collagenolytic activity, in words” value [2] is reported as “ineffective”, the “Collagenolytic Activity: % ^14 C-collagen gel lyzed” value [2] is reported as 50.0% and the “^45 Calcium … (%) after 2 days incubation” value ([1]; Table 5, PTH + 6 μg/ml) is reported as 50.8 ± 1.3%. The “^45 Calcium … (%) after 5 days incubation” value ([1]; Table 5, PTH + 6 μg/ml) was 93.1 ± 0.5%, the “^45 Calcium … (%) after 2 days incubation” value ([1]; Table 5, PTH + 20 μg/ml) was 54.2 ± 1.4% and the “^45 Calcium … (%) after 5 days incubation” value ([1]; Table 5, PTH + 20 μg/ml) was 93.6 ± 0.4%. For the same molecule, the “^45 Calcium … (%) after 2 days incubation” value ([1]; Table 5, PTH + 60 μg/ml) was 54.5 ± 1.2%, the “^45 Calcium … (%) after 5 days incubation” value ([1]; Table 5, PTH + 60 μg/ml) was 94.6 ± 1.2% and the “^45 Calcium … (%) after 2 days incubation” value ([1]; Table 5, PTH + 120 μg/ml) was 50.3 ± 3.1%. For the same molecule, the “^45 Calcium … (%) after 5 days incubation” value ([1]; Table 5, PTH + 120 μg/ml) was 90.2 ± 3.1%, the “^45 Calcium … (%) after 2 days incubation” value ([1]; Table 5, PTH + 200 μg/ml) was 50.9 ± 1.3% and the “^45 Calcium … (%) after 5 days incubation” value ([1]; Table 5, PTH + 200 μg/ml) was 92.1 ± 0.6%. The “effect on PTH-enhanced bone resorption, in words” value [1] was “no detectable effect”.
In the case of `CN(C)[C@@H]1C(=O)C(C(N)=O)=C(O)[C@@]2(O)C(=O)C3=C(O)c4c(O)cccc4[C@@](C)(O)[C@H]3[C@H](O)[C@@H]12` [Terramycin, Oxytetracycline], the “Collagenolytic Activity: % ^14 C-collagen gel lyzed” value [2] is reported as 4.4%.
For `CC1(C)S[C@@H]2[C@H](NC(=O)Cc3ccccc3)C(=O)N2[C@H]1C(=O)O` [penicillin], the GCF flow [3, 4] was “little or no effect”, the “Gram-positive and Gram-negative organisms in the pockets” value [3, 4] was “reduced the Gram-positive but increased the Gram-negative organisms” and the “active GCF collagenase” value [3, 4] was “little or no effect”. The pocket depth [3, 4] was “little or no effect”, the “total GCF collagenase (after trypsin pretreatment)” value [3, 4] was “appeared to increase” and the “Gingival Index (G. I.)” value ([3]; penicillin G 1 g per day (patient three) or minocycline 200 mg/day (patient one)) was “little or no effect”. For the same molecule, the “effect on PTH-enhanced bone resorption, in words” value [1] was “no detectable effect”.
In the case of `CC1(C)S[C@@H]2[C@H](NC(=O)[C@H](N)c3ccccc3)C(=O)N2[C@H]1C(=O)O` [ampicillin], the “effect on PMNL collagenolytic activity, in words” value [2] is reported as “ineffective”, the “Collagenolytic Activity: % ^14 C-collagen gel lyzed” value [2] is reported as 35.7% and the “^45 Calcium … (%) after 2 days incubation” value ([1]; Table 5, PTH + 6 μg/ml) is reported as 52.3 ± 1.9%. The “^45 Calcium … (%) after 5 days incubation” value ([1]; Table 5, PTH + 6 μg/ml) was 92.2 ± 2.0%, the “^45 Calcium … (%) after 2 days incubation” value ([1]; Table 5, PTH + 20 μg/ml) was 52.8 ± 1.7% and the “^45 Calcium … (%) after 5 days incubation” value ([1]; Table 5, PTH + 20 μg/ml) was 92.6 ± 0.5%. The “^45 Calcium … (%) after 2 days incubation” value ([1]; Table 5, PTH + 40 μg/ml) was 51.9 ± 2.1%, the “^45 Calcium … (%) after 5 days incubation” value ([1]; Table 5, PTH + 40 μg/ml) was 94.2 ± 1.1% and the “^45 Calcium … (%) after 2 days incubation” value ([1]; Table 5, PTH + 60 μg/ml) was 50.9 ± 1.7%. The “^45 Calcium … (%) after 5 days incubation” value ([1]; Table 5, PTH + 60 μg/ml) was 93.9 ± 0.7%, the “^45 Calcium … (%) after 2 days incubation” value ([1]; Table 5, PTH + 200 μg/ml) was 50.8 ± 1.8% and the “^45 Calcium … (%) after 5 days incubation” value ([1]; Table 5, PTH + 200 μg/ml) was 91.4 ± 0.7%. The “effect on PTH-enhanced bone resorption, in words” value [1] was “no detectable effect”.
